The source of these data is US12129234B1, “Crystalline salts of N-ethyl-(5-fluoro-1H-indol-3-yl)-N-methylethan-1-amine” (Gilgamesh Pharmaceuticals, Inc., priority 2023, dated 2024).

Data set [1] is described as follows: Overnight humidity exposure at 30° C./90% relative humidity. Particulars: 30° C./90% relative humidity (RH). The data set is classed as physicochemical. On the procedure:
(§1) Alternatively, after the oil is formed from the evaporation of the ethanol, acetone is added to the oil at a temperature effective to solubilize the oil, ranging from about 30° C. to about 60° C., such as 45° C., and then the resulting mixture is cooled to room temperature. A non-polar antisolvent, such as n-heptane is added to the solution with stirring to form a slurry comprising N-ethyl-2-(5-fluoro-1H-indol-3-yl)-N-methylethan-1-amine monosuccinate, from which a crystalline solid comprising N-ethyl-2-(5-fluoro-1H-indol-3-yl)-N-methylethan-1-amine monosuccinate is crystallized, for example, by seeding, scratching, or aging. The solids are collected by filtration and dried under vacuum.

Data set [2] is described as follows: Stability of the solid upon drying under vacuum. To be noted: solids collected by filtration and dried under vacuum. The data set is classed as physicochemical. How it is done: as §1

In the case of `CCN(C)CCc1c[nH]c2ccc(F)cc12.O=C(O)CCC(=O)O` [N-ethyl-2-(5-fluoro-1H-indol-3-yl)-N-methylethan-1-amine monosuccinate], the “behaviour after humidity exposure (deliquescence)” value in data set [1] was “deliquesces”. The stability upon drying result in data set [2] was “stable upon drying”.
